# Experimental data taken from patent US8343963B2, “Sulfamoyl-phenyl-ureido compounds and their use as medicament” (4SC AG, priority 2009, dated 2013).
# pIC50: −log10 of the molar value.
# Tested on: not listed separately
# Experiment: Solubility and solubility-range determination in 50 mM phosphate buffer at different pH
# Type: physicochemical
# Settings: aqueous buffer, kinetic from dmso stock, pH 4, 50 mM phosphate buffer, 1% DMSO, 23° C., read-out: Solubility or solubility range
# Experimental: The compounds were dissolved in DMSO at a concentration of 20 mg/ml. These stock solutions were further diluted 1:1 with DMSO (50 μl solution+50 μl DMSO) in seven steps. Subsequently, these solutions were diluted 1:100 (5 μl DMSO-stock+495 μl 50 mM phosphate buffer) in all four pH buffers (respectively: pH=4; pH=6; pH=7.4; pH=9) resulting in a final DMSO concentration of 1% in the buffers. These dilutions were vigorously mixed and transferred into 96-well reading plate. The plates were incubated in a shaker (600 rpm) at 23° C. for 24 hours. After that, the contents of the wells were mixed with a pipette and optical density (OD) was recorded at wavelengths of 550 nm; 600 nm; 650 nm and 700 nm in the Tecan Sunrise plate reader. The cut-off OD sum for an undissolved concentration of a compound was defined as follows: Cut off OD sum=mean blank OD+0.050 OD. For the determination of the solubility range, the following rule was applied: OD>cut off=>compound not dissolved at this concentration OD<cut-off=>compound dissolved at this concentration For the determination of the solubility, a titration curve (OD/concentration) was prepared and the concentrations were determined based on the measured OD of the mixture supernatant after centrifugation. The solubility values are given in μg/ml (table 3).
row,solubility at 24 h,Compound
1,> 200 µg/mL,"N=C(c1cccc(NC(=O)Nc2ccc(S(=O)(=O)NCc3ccc(S(N)(=O)=O)cc3)cc2)c1)N1CCS(=O)(=O)CC1 [Compound 44, 4-(3-(3-((1,1-dioxidothiomorpholino)(imino)methyl)phenyl)ureido)-N-(4-sulfamoylbenzyl)benzenesulfonamide]"

# Same assay, conditions: aqueous buffer, kinetic from dmso stock, pH 6, 50 mM phosphate buffer, 1% DMSO, 23° C., read-out: Solubility or solubility range
row,solubility at 24 h,Compound
1,> 200 µg/mL,"N=C(c1cccc(NC(=O)Nc2ccc(S(=O)(=O)NCc3ccc(S(N)(=O)=O)cc3)cc2)c1)N1CCS(=O)(=O)CC1 [Compound 44, 4-(3-(3-((1,1-dioxidothiomorpholino)(imino)methyl)phenyl)ureido)-N-(4-sulfamoylbenzyl)benzenesulfonamide]"

# Same assay, conditions: aqueous buffer, kinetic from dmso stock, pH 7.4, 50 mM phosphate buffer, 1% DMSO, 23° C., read-out: Solubility or solubility range
row,solubility at 24 h,Compound
1,> 200 µg/mL,"N=C(c1cccc(NC(=O)Nc2ccc(S(=O)(=O)NCc3ccc(S(N)(=O)=O)cc3)cc2)c1)N1CCS(=O)(=O)CC1 [Compound 44, 4-(3-(3-((1,1-dioxidothiomorpholino)(imino)methyl)phenyl)ureido)-N-(4-sulfamoylbenzyl)benzenesulfonamide]"

# Same assay, conditions: aqueous buffer, kinetic from dmso stock, pH 9, 50 mM phosphate buffer, 1% DMSO, 23° C., read-out: Solubility or solubility range
row,solubility at 24 h,Compound
1,> 200 µg/mL,"N=C(c1cccc(NC(=O)Nc2ccc(S(=O)(=O)NCc3ccc(S(N)(=O)=O)cc3)cc2)c1)N1CCS(=O)(=O)CC1 [Compound 44, 4-(3-(3-((1,1-dioxidothiomorpholino)(imino)methyl)phenyl)ureido)-N-(4-sulfamoylbenzyl)benzenesulfonamide]"

# Tested on: multiresistant Dd2 strain of Plasmodium falciparum
# Experiment: Antiplasmodial activity against Dd2 strain of Plasmodium falciparum ([8-3H]hypoxanthine incorporation)
# Type: cell-based
# Settings: 66 h, P. falciparum Dd2, 48 h + 18 h with [8-3H]hypoxanthine, 50% parasite growth inhibition, read-out: Antiplasmodia activity (IC50 class)
# Experimental: For the determination of the antiplasmodial activity of the compounds described above, the multiresistant Dd2 strain of Plasmodium falciparum was used. The incorporation of [8-^3H]hypoxanthine into the parasitic nucleic acids was measured. The plasmodia were incubated at 0.3% parasitaemia and an erythrocyte haematocrit of 2.5% in the presence of different concentrations of the compounds in a final volume of 200 μl. The medium employed was RPMI 1640 which contained 10% of heat-treated human serum and 3 mg/l of gentamycin. In the incubations, the concentrations of the compounds varied from 0.001 to 100 μM. After 48 h, each batch was treated with 50 μl of [8-^3H]hypoxanthine (1 mCi/ml) and incubated for a further 18 h. The cells were filtered off, washed and suspended in 20 μl of scintillation fluid. The radioactive hypoxanthine absorbed by the parasites was then quantified using a scintillation counter. The results were presented graphically and the IC50 value was determined using a fitting function. The value IC50, the ‘inhibition constant’, indicates the value in μMol/l at which 50% parasite growth inhibition occurs (R. E. Desjardins, et al., Antimicrobiol. Agent Chemother. 16, pp. 710-718, 1979; J. D. Chulay, et al., Exp. Parasitol. 55, pp. 138-146, 1983).
row,Compound,pIC50
1,"CCCCN1CCN(C(=N)c2cccc(NC(=O)Nc3ccc(S(=O)(=O)NCc4ccccc4)cc3)c2)CC1 [Compound 36, N-benzyl-4-(3-(3-((4-butylpiperazin-1-yl)(imino)methyl)phenyl)ureido)benzenesulfonamide]",6.00 to 6.68
2,"C=CCN1CCN(C(=N)c2cccc(NC(=O)Nc3ccc(S(=O)(=O)NCc4ccc(S(N)(=O)=O)cc4)cc3)c2)CC1 [Compound 39, 4-(3-(3-((4-allylpiperazin-1-yl)(imino)methyl)phenyl)ureido)-N-(4-sulfamoylbenzyl)benzenesulfonamide]",> 7.70
3,"CCCCN1CCN(C(=N)c2cccc(NC(=O)Nc3ccc(S(=O)(=O)NNc4ccc(S(N)(=O)=O)cc4)cc3)c2)CC1 [Compound 40, 4-(2-(4-(3-(3-((4-butylpiperazin-1-yl)(imino)methyl)phenyl)ureido)phenylsulfonyl)hydrazinyl)benzenesulfonamide]",≤ 6.00
4,"CCCCN1CCN(C(=N)c2cccc(NC(=O)Nc3ccc(S(=O)(=O)NC(C)c4ccc(S(N)(=O)=O)cc4)cc3)c2)CC1 (stereo not shown) [Compound 42, 4-(3-(3-((4-butylpiperazin-1-yl)(imino)methyl)phenyl)ureido)-N-(1-(4-sulfamoylphenyl)ethyl)benzenesulfonamide]",6.00 to 6.68
5,"N=C(c1cccc(NC(=O)Nc2ccc(S(=O)(=O)NCc3ccc(S(N)(=O)=O)cc3)cc2)c1)N1CCS(=O)(=O)CC1 [Compound 44, 4-(3-(3-((1,1-dioxidothiomorpholino)(imino)methyl)phenyl)ureido)-N-(4-sulfamoylbenzyl)benzenesulfonamide]",6.70 to 7.70
6,"N=C(c1cccc(NC(=O)Nc2ccc(S(=O)(=O)NCc3ccc(S(N)(=O)=O)cc3)cc2)c1)N1CCN(Cc2ccncc2)CC1 [Compound 45, 4-(3-(3-(imino (4-(pyridin-4-ylmethyl)piperazin-1-yl)methyl)phenyl)ureido)-N-(4-sulfamoylbenzyl)benzenesulfonamide]",6.00 to 6.68
7,"N=C(c1cccc(NC(=O)Nc2ccc(S(=O)(=O)NCc3ccc(S(N)(=O)=O)cc3)cc2)c1)N1CCCC1 [Compound 46, 4-(3-(3-(imino(pyrrolidin-1-yl)methyl)phenyl)ureido)-N-(4-sulfamoylbenzyl)benzenesulfonamide]",6.70 to 7.70
8,"CCN(CC)CCN(C)C(=N)c1cccc(NC(=O)Nc2ccc(S(=O)(=O)NCc3ccc(S(N)(=O)=O)cc3)cc2)c1 [Compound 47, N-(2-(diethylamino)ethyl)-N-methyl-3-(3-(4-(N-(4-sulfamoylbenzyl)sulfamoyl)phenyl)ureido)benzimidamide]",6.70 to 7.70
9,"N=C(c1cccc(NC(=O)Nc2ccc(S(=O)(=O)NCc3ccc(S(N)(=O)=O)cc3)cc2)c1)N1CCC(O)CC1 [Compound 48, 4-(3-(3-((4-hydroxypiperidin-1-yl)(imino)methyl)phenyl)ureido)-N-(4-sulfamoylbenzyl)benzenesulfonamide]",6.70 to 7.70
10,"CN(C)C1CCN(C(=N)c2cccc(NC(=O)Nc3ccc(S(=O)(=O)NCc4ccc(S(N)(=O)=O)cc4)cc3)c2)C1 (stereo not shown) [Compound 49, 4-(3-(3-((3-(dimethylamino)pyrrolidin-1-yl)(imino)methyl)phenyl)ureido)-N-(4-sulfamoylbenzyl)benzenesulfonamide]",6.70 to 7.70
11,"N=C(c1cccc(NC(=O)Nc2ccc(S(=O)(=O)NCc3ccc(S(N)(=O)=O)cc3)cc2)c1)N1CCCC1CN1CCCC1 (stereo not shown) [Compound 50, 4-(3-(3-(imino(2-(pyrrolidin-1-ylmethyl)pyrrolidin-1-yl)methyl)phenyl)ureido)-N-(4-sulfamoylbenzyl)benzenesulfonamide]",6.70 to 7.70
12,"CC(C)(C)OC(=O)N1CCN(C(=N)c2cccc(NC(=O)Nc3ccc(S(=O)(=O)NCc4ccc(S(N)(=O)=O)cc4)cc3)c2)CC1 [Compound 51, tert-butyl 4-(imino(3-(3-(4-(N-(4-sulfamoylbenzyl)sulfamoyl)phenyl)ureido)phenyl)methyl)piperazine-1-carboxylate]",6.00 to 6.68
13,"CCCCCN1CCN(C(=N)c2cccc(NC(=O)Nc3ccc(S(=O)(=O)NCc4ccc(S(N)(=O)=O)cc4)cc3)c2)CC1 [Compound 55, 4-(3-(3-(imino(4-pentylpiperazin-1-yl)methyl)phenyl)ureido)-N-(4-sulfamoylbenzyl)benzenesulfonamide]",> 7.70
14,"CCCCCCCN1CCN(C(=N)c2cccc(NC(=O)Nc3ccc(S(=O)(=O)NCc4ccc(S(N)(=O)=O)cc4)cc3)c2)CC1 [Compound 56, 4-(3-(3-((4-heptylpiperazin-1-yl)(imino)methyl)phenyl)ureido)-N-(4-sulfamoylbenzyl)benzenesulfonamide]",6.70 to 7.70
15,"CC(=O)N1CCN(C(=N)c2cccc(NC(=O)Nc3ccc(S(=O)(=O)NCc4ccc(S(N)(=O)=O)cc4)cc3)c2)CC1 [Compound 57, 4-(3-(3-((4-acetylpiperazin-1-yl)(imino)methyl)phenyl)ureido)-N-(4-sulfamoylbenzyl)benzenesulfonamide]",6.70 to 7.70
16,"CCCCC(=O)N1CCN(C(=N)c2cccc(NC(=O)Nc3ccc(S(=O)(=O)NCc4ccc(S(N)(=O)=O)cc4)cc3)c2)CC1 [Compound 59, 4-(3-(3-(imino(4-pentanoylpiperazin-1-yl)methyl)phenyl)ureido)-N-(4-sulfamoylbenzyl)benzenesulfonamide]",6.70 to 7.70
17,"CCOC(=O)N1CCN(C(=N)c2cccc(NC(=O)Nc3ccc(S(=O)(=O)NCc4ccc(S(N)(=O)=O)cc4)cc3)c2)CC1 [Compound 61, ethyl 4-(imino(3-(3-(4-(N-(4-sulfamoylbenzyl)sulfamoyl)phenyl)ureido)phenyl)methyl)piperazine-1-carboxylate]",> 7.70
18,"CCCOC(=O)N1CCN(C(=N)c2cccc(NC(=O)Nc3ccc(S(=O)(=O)NCc4ccc(S(N)(=O)=O)cc4)cc3)c2)CC1 [Compound 62, propyl 4-(imino(3-(3-(4-(N-(4-sulfamoylbenzyl)sulfamoyl)phenyl)ureido)phenyl)methyl)piperazine-1-carboxylate]",> 7.70
19,"N=C(c1cccc(NC(=O)Nc2ccc(S(=O)(=O)NCc3ccc(S(N)(=O)=O)cc3)cc2)c1)N1CCN(CC2OCCO2)CC1 [Compound 67, 4-(3-(3-((4-((1,3-dioxolan-2-yl)methyl)piperazin-1-yl)(imino)methyl)phenyl)ureido)-N-(4-sulfamoylbenzyl)benzene sulfonamide]",6.70 to 7.70
20,"N=C(c1cccc(NC(=O)Nc2ccc(S(=O)(=O)NCc3ccc(S(N)(=O)=O)cc3)cc2)c1)N1CCN(CC2CCCO2)CC1 (stereo not shown) [Compound 68, 4-(3-(3-(imino(4-((tetrahydrofuran-2-yl)methyl)piperazin-1-yl)methyl)phenyl)ureido)-N-(4-sulfamoylbenzyl)benzene sulfonamide]",6.70 to 7.70
21,"CCCCN1CCN(C(=N)c2ccc(NC(=O)Nc3ccc(S(=O)(=O)NCc4ccc(S(N)(=O)=O)cc4)cc3)cc2)CC1 [Compound 71, 4-(3-(4-((4-butylpiperazin-1-yl)(imino)methyl)phenyl)ureido)-N-(4-sulfamoylbenzyl)benzene sulfonamide]",6.70 to 7.70
